Reference: US20100068211A1, “USE OF ANTIRESORPTIVE COMPOUNDS TO PREVENT IONIZING RADIATION-INDUCED ACTIVATION OF OSTEOCLASTS AND RESULTING BONE LOSS” (priority 2008, published 2010)
Marks after values point to notes of the source that are not given here.

Columns and labels:
[1] = cited from earlier work
rats = conditions: 0.1 mg/kg/week administered subcutaneously; cited from earlier work
TRAP5b = assay: Serum TRAP5b ELISA, irradiated mice treated with risedronate (Example 4b); type: in vivo; conditions: 2 Gy irradiated mice, risedronate 30 μg/kg every other day, 7, 14 and 21 days
Procedure: (§1) Tissue collection: 12 individuals from each group were sacrificed at 1, 2, and 3 weeks following the initial radiation exposure. Each mouse weighed then anesthetized using isoflurane, and blood was collected for serum analysis by cardiac puncture and exsanguination followed by cervical dislocation to ensure death. Serum was isolated by centrifugation, flash frozen in liquid nitrogen, and stored at −80° C. The left and right hind limbs as well as the vertebral column were collected for analysis. Hind limbs were removed and disarticulated. Tibiae and femora were cleaned of soft tissue and fixed in a solution of 10% formalin. After 48 hours, the bones were placed in 70% ethanol. The vertebral column was frozen at −20° C. to ensure microcomputed tomography (microCT) analysis of the fifth lumbar vertebrae (L5).
(§2) Serum Chemistry: Serum samples were analyzed for circulating markers of bone formation and resorption. ELISA kits for osteocalcin (Biomedical Technologies, Inc., Stoughton, Mass.) and tartrate-resistant acid phosphatase (TRAP5b) (Immunodiagnostic Systems, Inc., Fountain Hills, Az.), respectively. The analyses were performed according to protocols provided by the manufacturers.

minipigs = conditions: 2.5 vs 0.5 mg/kg/day oral; cited from earlier work
osteoclasts = assay: Histological analysis of osteoclast surface (TRAP staining), proximal tibia trabecular bone (Example 4c); type: in vivo, mice; conditions: one week after exposure, but not two and three weeks; 2 Gy; risedronate 30 micrograms/kg every other day; versus non-irradiated control
Description: Osteoclast Identification: Following tomographic analysis, the left tibiae were decalcified using a formic acid solution (Immunocal; Decal Chemical Corp., Talman, N.Y.) and embedded in a glycol methacrylate resin (ImmunoBed™; Polysciences, Wasrrington, Pa.). The samples were cut into sagittal sections with a thickness of 3 μm. A subset of each group (n=5-6) was selected for analysis. Each slide was stained with TRAP using a commercial kit (Sigma, St. Louis, Mo.) to identify osteoclasts and counterstained with hematoxylin, Radiographs assessed the earliest time point of complete decalcification. […] Osteoclast presence was determined by tartrate resistant acid phosphatase (TRAP) staining of the slides using a commercial kit (Sigma; St. Louis, Mo.) and then counterstaining with hematoxylin (Sigma).
Histomorphometric evaluation was performed from captured micrographs (200×) throughout the metaphysis, starting approximately 0.25 mm distal from the growth plate (in order to exclude the primary spongiosa) and extending a further 0.5 mm. Bone histomorphometric parameters for the proximal metaphysis of the tibia were measured as described in the report of the American Society of Bone and Mineral Research (ASBMR) Histomophometry Nomenclature Committee (22). Surface measurements were quantified relative to total bone surface (BS). […]

osteocalcin = assay: Serum osteocalcin ELISA, irradiated mice treated with risedronate (Example 4b); type: in vivo; conditions: 2 Gy irradiated mice; risedronate 30 μg/kg every other day
Procedure: as §1, §2

OVX rat = conditions: OVX rats; administered orally; cited from earlier work
[2] = system: female Sprague-Dawley rats; assay: Rat model, clinically-modeled radiation dose regimen with risedronate, tibia microCT (Example 5); type: in vivo; conditions: risedronate 0.1 mg/kg/week subcutaneously; for Conn. Dens. (connectivity density) / SMI (structural model index) / Tb. N. (trabecular number) / Tb. Sp. (trabecular spacing) / Tb. Th (trabecular thickness) / BV/TV (bone volume fraction): mean ± SEM
Description: The right hindlimb from twenty-one week old female Sprague-Dawley rats were irradiated using a clinical irradiator (linear accelerator; LINAC; Wake Forest University). The dose applied was 16 Gy given as 4 fractions of 4 Gy each. This dose is the equivalent in terms of biological impacts on the hip during the course of radiation therapy for cancer, as determined by radiation biophysicists. Irradiations (all four total) were provided over the course of two weeks. Animals either received no radiation, radiation only, or radiation+risedronate injection (0.1 mg/kg/week subcutaneously). Administration of risedronate was provided one day prior to the first irradiation, then three times per week until sacrifice.
Animals were sacrificed two and four weeks after exposure. Hindlimbs were removed, and the tibiae were examined via microCT for several parameters. Meanings of the following trabecular parameters as they relate with conditions of increased resorption or atrophy are provided in Example 3 Methods Section: BV/TV; connectivity density (Conn.Dens.); trabecular thickness (Tb.Th.); trabecular number (Tb.N); and trabecular spacing (Tb.S.) were again determined. All measurements were taken within a region extending 1 mm distal to the growth plate.

aged rats = aged rats (9 months then allowed to mature 60 days); 0.02 or 0.04 mg/kg/wk; cited from earlier work
[3] = realistic order stated in text; 1% assumed for dose conversion; cited from earlier work
female C57BL/6 mice = assay: Risedronate treatment of radiation-induced bone loss in mice, microCT (Example 4); type: in vivo; conditions: 2 Gy whole body X-rays
female B6 mice = assay: High dose zoledronate against radiation-induced bone loss in mice, microCT (Example 6); type: in vivo; conditions: for radiation-induced bone loss: 12-week-old mice, 2 Gy whole body X-rays, single 10 mg/kg dose of zoledronate, microCT 2 weeks after irradiation, 10 mg/kg
Procedure: The antiresorptive bisphosphonate zoledronate was selected as representative of the class of antiresorptive agents and was tested, at high doses of 10 mg/kg, for its ability to prevent radiation-induced bone loss.
12-week-old female B6 mice were either 1) not irradiated and treated with a placebo injection, 2) irradiated with a 2 Gy whole body dose of X-rays and treated with a placebo injection, or 3) irradiated with a 2 Gy whole body dose of X-rays and treated with a single 10 mg/kg dose of […]. Bones were collected and examined by microCT 2 weeks after irradiation and zoledronate injection.

[4] = 2 Week Examination, 16 Gy (4 x 4 Gy)
[5] = 4 Week Examination, 16 Gy (4 x 4 Gy)
[6] = risedronate 30 μg/kg subcutaneous every other day

In the case of “Denosumab: fully human anti-RANKL antibody that binds RANK ligand and blocks its binding to RANK, formerly AMG162 (Amgen)”, the “effect of low doses on markers for bone formation” value ([1]; 0.01 mg/kg and 0.03 mg/kg) is given as “reduced markers for bone formation, but for only temporary periods”, the duration of efficacy ([1]; 0.3, 1.0 and 3.0 mg/kg) is given as over 30 days and the “performance compared with standard 90 mg dose of pamidronate” value ([1]; 0.3, 1.0 and 3.0 mg/kg) is given as “performed similarly”.
In the case of `O=P(O)(O)C(O)(Cc1cccnc1)P(=O)(O)O` [risedronate], the “bone volume and fraction in GIO” value (rats) is given as “increased bone volume and fraction by reducing turnover”, the “serum TRAP5b levels (marker for osteoclast activity)” value (TRAP5b) is given as “reduced at all time points” and the “serum TRAP5b levels (marker for osteoclast activity)” value (TRAP5b; listed as Risedronate) is given as “reduced TRAP5b levels at all time points”. The “preserving architecture, comparison of oral doses” value (minipigs) was “more pronounced in animal models (minipigs) using 2.5 mg/kg/day than 0.5 mg/kg/day”, the “osteoclast surface, proximal tibia trabecular bone” value (osteoclasts) was “greater osteoclast surface” and the “serum osteocalcin levels (marker for bone formation)” value (osteocalcin) was “trended to decrease levels”. For the same compound, the “oral doses at which improvement in bone mineral density and preservation of microarchitecture generally occurred” value (OVX rat) was “greater than 0.5 mg/kg/day”, the “Conn. Dens. (connectivity density)” value [2, 4] was 95.4 ± 4.4^b l/mm^3 and the “SMI (structural model index)” value [2, 4] was 0.83 ± 0.07^e. For the same compound, the “Tb. N. (trabecular number)” value [2, 4] was 4.02 ± 0.11^g, the “Tb. Sp. (trabecular spacing)” value [2, 4] was 216 ± 8^g μm and the “Tb. Th (trabecular thickness)” value [2, 4] was 90.1 ± 1.4^b. The “BV/TV (bone volume fraction)” value ([2]; 2 Week Examination, right hindlimb 16 Gy (4 fractions of 4 Gy), tibia microCT) was 31.9 ± 0.79^e %, the “effect on radiation-induced trabecular deterioration relative with control” value ([2]; 2 weeks, rats, 16 Gy) was “largely mitigated these changes” and the “sparing effect on connectivity of the trabeculae compared with the differences after only receiving radiation” value ([2]; 2 weeks, rats) was 12%. The “BV/TV (bone volume fraction)” value [2, 5] was 34.4 ± 1.2^b,^f %, the “Conn. Dens. (connectivity density)” value [2, 5] was 109.3 ± 4.6^e l/mm^3 and the “SMI (structural model index)” value [2, 5] was 0.68 ± 0.12^a,^f. For the same compound, the “Tb. N. (trabecular number)” value [2, 5] was 4.37 ± 0.09^f, the “Tb. Sp. (trabecular spacing)” value [2, 5] was 193 ± 5^f μm and the “Tb. Th (trabecular thickness)” value [2, 5] was 90.9 ± 1.1^c,^h. For the same compound, the “evidence of trabecular deterioration via microCT relative with control” value ([2]; Week 4, rats, 16 Gy) was “has disappeared by Week 4”, the “histomorphometric changes in the tibial diaphysis” value (aged rats) was “no histomorphometric changes” and the oral bioavailability [3] was 0.5-0.7%. The “radiation-induced bone loss at the 5th lumbar vertebra (FIG. 13)” value (female C57BL/6 mice; [6]) was “prevents rapid radiation-induced bone loss”, the “radiation-induced bone loss at the distal femur (FIG. 12)” value (female C57BL/6 mice; [6]) was “prevents rapid radiation-induced bone loss” and the “radiation-induced bone loss (proximal tibia, distal femur and 5th lumbar vertebra)” value (female C57BL/6 mice; risedronate 30 μg/kg/injection subcutaneous every other day, 1, 2 and 3 weeks) was “prevents radiation-induced bone loss”.
For `O=P(O)(O)C(O)(Cn1ccnc1)P(=O)(O)O` [zoledronate], the radiation-induced bone loss (female B6 mice) was “prevents radiation-induced bone loss”, the radiation-induced bone loss (female B6 mice; listed as Zoledronate) was “prevented the bone loss” and the “bone mass versus untreated, non-irradiated levels” value (female B6 mice; growing mice, 2 Gy, single 10 mg/kg zoledronate, 2 weeks) was “increased to greater than untreated, non-irradiated levels”.
